tested on: Chlorella cells; test: Test of reproductive ability using chlorella cells; assay type: cell-based; settings: Table 1; relative number of chlorella cells after 14 days, non-treated area = 100; LS medium; concentration (ppm) as in table
Description: Chlorella cells which were green cells of a […] were cultured with vibration in an inorganic salt medium. […] The concentration of the cells was set to 1.00×10^5 (cells per ml) at the start of the test. […] As the inorganic salt medium, a Linsmaier-Skoog (LS) medium was used. Three media were used as the treated areas and the non-treated areas every the plant-activating agent or the plant-activating composition. The average thereof was compared with that in the non-treated areas.

Molecule | reproductive ability
Citric acid C12 monoamide [Inventive product 1-8] | 128
Citric acid C18 monoester potassium salt [Inventive product 1-3] | 138
Citric acid C14 monoamide [Inventive product 1-6] | 136
Citric acid C18 monoamide [Inventive product 1-5] | 139
Citric acid C18 diester [Inventive product 1-7] | 138
Citric acid C18 monoester [Inventive product 1-1] | 142
CC(O)C(=O)O (stereo not drawn) [Comparative product 1-1, Lactic acid, reference compound] | 99

same assay, conditions: Table A1; relative number of chlorella cells after 14 days, non-treated area = 100

Molecule | reproductive ability
CCCCCCCCCCCCCCCCCCCCCCCCCCCCCC(=O)O [Inventive product A1-7, Melissic acid] | 138
CCCCCCCCCCCCCCCCCCCCCC(=O)O [Inventive product A1-6, Behenic acid (LUNAC BA)] | 150
CC(=O)O [Comparative product A1-1, Acetic acid, reference compound] | 90
CCCCCCCC/C=C\CCCCCCCC(=O)O [Inventive product A1-5, Oleic acid] | 148
CCC(=O)O [Comparative product A1-3, Propionic acid, reference compound] | 94
CCCCCCCCCCCCCC(=O)O [Inventive product A1-1, Myristic acid (LUNAC MY-98)] | 127
CC(O)C(=O)O (stereo not drawn) [Comparative product A1-4, Lactic acid, reference compound] | 93

same assay, conditions: Table B1; relative number of chlorella cells after 14 days, non-treated area = 100

Molecule | reproductive ability
Hexaglycerol ester of stearic acid [Inventive product B1-8] | 123
O=C1OCC(CO)O1 (stereo not drawn) [Inventive product B1-9, Glycerol carbonate] | 126
Stearic acid monoglyceride [Inventive product B1-3] | 132
OCC(O)CO [Comparative product B1-1, Glycerol, reference compound] | 98
CCCCCCCCCCCCCCCCCCOCC(O)CO (stereo not drawn) [Inventive product B1-4, Batyl alcohol] | 130
CCCCCCCCCCCCCCCCCCOC(=O)C(O)CO (stereo not drawn) [Inventive product B1-6, Glyceric acid stearyl ester] | 122
CCCCCCCCCCCCCCCCNC(=O)C(O)CO (stereo not drawn) [Inventive product B1-7, Glyceric acid cetyl amide] | 120

From patent US7829500B2, “Plant-activating agent” (Kao Corporation, priority 2000, dated 2010)
